Laboratory results as given in EP0906294B1 (WARNER-LAMBERT COMPANY, priority 1996, dated 1997).
Where two headings read alike, the source gives them in different places.

Assays:
[1] = biological target: human dopamine D2 (Long form) receptors (Homo sapiens, UniProt P14416); test: Receptor binding assay, [3H]spiperone competition, D2
Method: (§1) The D2 receptor cDNA was subcloned into an expression vector, pRc/CMV. The plasmids were transfected by electroporation into CHO K1 cells. A single stable transfectant, resistant to the antibiotic G418, was isolated and selected for use in the binding studies.
(§2) Cells were grown until confluent, after which growth medium was removed and replaced with 0.02% ethylene diamine tetracetate (EDTA) in a phosphate-buffered saline solution (Sigma Chemical Co., St. Louis, Missouri) and scraped from the flasks. The cells were centrifuged at about 1000 × g for 10 minutes at […] and then resuspended in TEM buffer (25 mM Tris-HCl, pH 7.4, 5 mM EDTA, and 6 mM MgCl2) for D2 or the D4.2 buffer (50 mM Tris-HCl, pH 7.4, 5 mM EDTA, 1.5 mM CaCl2, 5 mM KCl, and 120 mM NaCl) and homogenized. The membranes were pelleted by centrifugation at 20,000 × g at […] for 20 minutes. Then the pellets were resuspended in appropriate buffer at 1 mL/flask and stored at -70°C until used in the receptor binding assay.
(§3) After 60 minutes incubation at 25°C, the incubations were terminated by rapid filtration through Whatmann GF/B glass fibre filters (soaked for 1 hour in 0.5% polyethylenimine) on a -cell harvester, with three washes of 1 mL ice-cold buffer. Individual filter disks containing the bound ligand were placed in counting vials with 4 mL of scintillation fluid (Ready Gel, Beckman Instrument Inc., Fullerton, California) and then counted in a Beckman LS-6800 liquid scintillation counter at an efficiency of 45%. Nonspecific binding was defined in presence of […] of haloperidol.
(§4) Saturation and competition binding data were analyzed using an iterative nonlinear least-square curve-fitting Ligand program. […] Experimental compounds were made up as stock solutions in dimethyl sulfoxide (DMSO). […] Each observation was carried out in triplicate. To allow these calculations, Ki values were measured for the interaction of various ligands with the receptor. […]

[2] = biological target: T1, human recombinant dopamine D4.2 receptor subtype (Homo sapiens, UniProt P21917, DEL265-296); test: Receptor binding assay, [3H]spiperone competition, D4.2; conditions: for D2/D4 Ratio: ratio of D2 Ki to D4 Ki
T1 sequence (P21917 with tags, fused parts or gaps DEL265-296): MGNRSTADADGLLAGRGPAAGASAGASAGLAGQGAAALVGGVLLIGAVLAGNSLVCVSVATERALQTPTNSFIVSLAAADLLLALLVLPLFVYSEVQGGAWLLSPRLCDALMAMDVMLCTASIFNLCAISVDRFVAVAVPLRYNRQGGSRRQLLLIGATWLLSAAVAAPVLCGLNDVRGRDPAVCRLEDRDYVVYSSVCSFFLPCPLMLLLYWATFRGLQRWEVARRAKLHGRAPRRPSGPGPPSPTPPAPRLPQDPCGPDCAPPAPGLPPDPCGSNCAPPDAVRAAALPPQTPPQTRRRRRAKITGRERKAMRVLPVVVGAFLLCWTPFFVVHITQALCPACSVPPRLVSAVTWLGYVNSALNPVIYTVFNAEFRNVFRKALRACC
Method: as §1, §2, §3, §4

[3] = CHO K1 cell membranes, 0.2 nM [3H]spiperone, 60 minutes at 25°C, apparent Ki from IC50 by Cheng and Prusoff
[4] = CHO K1 cell membranes, 0.2 nM [3H]spiperone, 60 minutes at 25°C, apparent Ki from IC50 by Cheng and Prusoff, read-out: D4 (Ki)

Sequence of human dopamine D2 (Long form) receptors (P14416 whole entry): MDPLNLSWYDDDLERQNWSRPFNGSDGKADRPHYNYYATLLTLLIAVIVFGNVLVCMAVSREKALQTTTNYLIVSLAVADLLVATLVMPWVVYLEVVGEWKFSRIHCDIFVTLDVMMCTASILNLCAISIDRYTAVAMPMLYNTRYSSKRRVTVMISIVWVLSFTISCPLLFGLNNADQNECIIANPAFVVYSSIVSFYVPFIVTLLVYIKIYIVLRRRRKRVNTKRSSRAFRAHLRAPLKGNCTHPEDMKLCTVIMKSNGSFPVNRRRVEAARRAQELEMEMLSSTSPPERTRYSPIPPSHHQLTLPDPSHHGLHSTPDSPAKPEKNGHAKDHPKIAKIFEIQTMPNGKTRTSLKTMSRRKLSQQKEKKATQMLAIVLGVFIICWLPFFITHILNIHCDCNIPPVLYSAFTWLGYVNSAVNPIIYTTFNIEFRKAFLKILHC

SMILES	Ki [1, 3]	Ki ([2]; read-out: D4 (Ki))	D2/D4 Ratio [2]	also measured
O=C1COc2cc(CN3CCN(c4ccccc4)CC3)ccc2N1 [Example 13, 7-(4-phenyl-piperazin-1-ylmethyl)-4H-benzo[1,4]oxazine-3-one]	129 nM	6.09 nM		
O=C1COc2ccc(CN3CCN(c4ccccc4)CC3)cc2N1 [Example 8, 6-[4-phenyl-piperazin-1-ylmethyl]-4H-benzo[1,4]oxazin-3-one]		18.3 nM		
COc1ccc(C2CCN(Cc3ccc4c(c3)NC(=O)CO4)CC2)cc1 [Example 37, 6-[4-(4-Methoxy-phenyl) -piperidin-1-ylmethyl]-4H-benzo[1,4]oxazin-3-one]	698 nM			
O=C1COc2cc(CN3CCN(c4ccc(Cl)cc4)CC3)ccc2N1 [Example 35, 7-[4-(4-Chloro-phenyl)-piperazin-1-ylmethyl]-4H-benzo[1,4]oxazin-3-one]			132.5	Ki [1]: 620 nM; Ki [2]: 4.68 nM
Cc1ccc(N2CCN(Cc3ccc4c(c3)OCC(=O)N4)CC2)cc1C [Example 14, 7-[4-(3,4-dimethyl-phenyl)-piperazin-1-ylmethyl]-4H-benzo[1,4]oxazine-3-one]	346 nM			
Cc1ccc(C2CCN(Cc3ccc4c(c3)OCC(=O)N4)CC2)cc1 [Example 41, 7-(4-p-Tolyl-piperidin-1-ylmethyl)-4H-benzo[1,4]oxazin-3-one]	287 nM	2.6 nM	110.5	
O=C1COc2ccc(CN3CCN(c4ccc(C(F)(F)F)cc4)CC3)cc2N1 [Example 31, 6-[4-(4-Trifluoromethyl-phenyl)-piperazin-l-ylmethyl] -4H-benzo[1,4]oxazin-3-one]				Ki [2, 4]: 173 nM
COc1ccc(C2CCN(Cc3ccc4c(c3)OCC(=O)N4)CC2)cc1 [Example 38, 7-[4-(4-Methoxy-phenyl)-piperidin-1-ylmethyl]-4H-benzo[1,4]oxazin-3-one]	1130 nM	6.7 nM	168.1	
COc1ccc(N2CCN(Cc3ccc4c(c3)OCC(=O)N4)CC2)cc1 [Example 34, 7-[4-(4-Methoxy-phenyl)-piperazin-1-ylmethyl]-4H-benzo[1,4]oxazin-3-one]	≥ 5880 nM	5 nM	1176.5	
Cc1ccc(C2CCN(Cc3ccc4c(c3)OCC(=O)N4)CC2)cc1C [Example 36, 7-[4-(3,4-Dimethyl-phenyl)-piperidin-1-ylmethyl]-4H-benzo[1,4]oxazin-3-one]	610 nM	2.61 nM		
O=C1COc2ccc(CN3CCN(c4ccc(Cl)cc4)CC3)cc2N1 [Example 32, 6-[4-(4-Chloro-phenyl)-piperazin-1-ylmethyl]-4H-benzo [1,4]oxazin-3-one]		62.5 nM		
NS(=O)(=O)c1ccc(N2CCN(Cc3ccc4c(c3)NC(=O)CO4)CC2)cc1 [Example 4, 4-[4-(3-oxo-3,4-dihydro-2H-benzo[1,4]-oxazin-6-ylmethyl)-piperazin-1-yl]-benzenesulfonamide]		23.6 nM		
Cc1ccc(C2CCN(Cc3ccc4c(c3)NC(=O)CO4)CC2)cc1 [Example 16, 6-(4-p-tolyl-piperidin-1-ylmethyl)-4H-benxo[1,4]oxazin-3-one]				Ki [2, 4]: 2.84 nM
